The test system of the assay is MV-4-11 cells. Briefly: Gene expression microarray analysis (Affymetrix PrimeView) and GSEA. It counts as cell-based, human. More on the design: RFU PODN (11730768_x_at) / Fold change /veh PODN (11730768_x_at) / RFU LINC00158 (11744669_a_at) / Fold change /veh LINC00158 (11744669_a_at) / RFU DUSP10 (11751237_a_at) / Fold change /veh DUSP10 (11751237_a_at) / RFU ID3 (11757404_x_at) / Fold change /veh ID3 (11757404_x_at) / RFU PLEKHG5 (11737974_s_at) / Fold change /veh PLEKHG5 (11737974_s_at) / RFU LRRC4B (11730491_at) / Fold change /veh LRRC4B (11730491_at) / RFU GIMAP4 (11747438_a_at) / Fold change /veh GIMAP4 (11747438_a_at) / RFU KRT8 (11758183_x_at) / Fold change /veh KRT8 (11758183_x_at) / RFU CNN1 (11734310_a_at) / Fold change /veh CNN1 (11734310_a_at) / RFU VPS37D (11726825_at) / Fold change /veh VPS37D (11726825_at) / RFU C10orf10 (11716522_x_at) / Fold change /veh C10orf10 (11716522_x_at) / RFU KIR2DL2 /// KIR2DL4 /// KIR2DL5A /// KIR2DL5B /// KIR2DS1 /// KIR2DS2 /// KIR2DS3 /// KIR2DS4 /// KIR3DL3 /// KIR3DL3 /// KIR3DS1 (11738374_at) / Fold change /veh KIR2DL2 /// KIR2DL4 /// KIR2DL5A /// KIR2DL5B /// KIR2DS1 /// KIR2DS2 /// KIR2DS3 /// KIR2DS4 /// KIR3DL3 /// KIR3DL3 /// KIR3DS1 (11738374_at) / RFU C1QL1 (11718748_at) / Fold change /veh C1QL1 (11718748_at) / RFU TMPRSS4 (11747572_a_at) / Fold change /veh TMPRSS4 (11747572_a_at) / RFU HAMP (11756126_x_at) / Fold change /veh HAMP (11756126_x_at) / RFU RNFT2 (11725882_a_at) / Fold change /veh RNFT2 (11725882_a_at) / RFU NR4A2 (11747474_a_at) / Fold change /veh NR4A2 (11747474_a_at) / RFU ABCC12 (11746883_a_at) / Fold change /veh ABCC12 (11746883_a_at) / RFU TMEM136 (11760407_x_at) / Fold change /veh TMEM136 (11760407_x_at) / RFU CLDN22 /// WWC2 (11732394_at) / Fold change /veh CLDN22 /// WWC2 (11732394_at) / RFU HLA-DPB1 (11760878_x_at) / Fold change /veh HLA-DPB1 (11760878_x_at) / RFU SPINT1 (11716480_a_at) / Fold change /veh SPINT1 (11716480_a_at) / RFU GAP43 (11754022_s_at) / Fold change /veh GAP43 (11754022_s_at) / RFU A4GNT (11735810_at) / Fold change /veh A4GNT (11735810_at) / RFU PRB3 (11715151_x_at) / Fold change /veh PRB3 (11715151_x_at) / RFU TUBB4B (11761932_at) / Fold change /veh TUBB4B (11761932_at) / RFU CAPN14 (11732068_a_at) / Fold change /veh CAPN14 (11732068_a_at) / RFU TMCC2 (11721928_a_at) / Fold change /veh TMCC2 (11721928_a_at) / RFU IRGQ (11745062_a_at) / Fold change /veh IRGQ (11745062_a_at) / RFU FAM174B (11720279_a_at) / Fold change /veh FAM174B (11720279_a_at) / RFU TMPRSS4 (11748680_a_at) / Fold change /veh TMPRSS4 (11748680_a_at) / RFU FAM212B (11763350_a_at) / Fold change /veh FAM212B (11763350_a_at) / RFU PLEKHG5 (11743358_a_at) / Fold change /veh PLEKHG5 (11743358_a_at) / RFU ZSCAN30 (11745921_a_at) / Fold change /veh ZSCAN30 (11745921_a_at) / RFU CMKLR1 (11741424_a_at) / Fold change /veh CMKLR1 (11741424_a_at) / RFU LOC101060620 /// MAPK8IP1 (11723275_at) / Fold change /veh LOC101060620 /// MAPK8IP1 (11723275_at) / RFU SPTSSB (11747773_x_at) / Fold change /veh SPTSSB (11747773_x_at) / RFU PRSS12 (11739890_at) / Fold change /veh PRSS12 (11739890_at) / RFU BIN1 (11741810_x_at) / Fold change /veh BIN1 (11741810_x_at) / RFU WNT11 (11732464_a_at) / Fold change /veh WNT11 (11732464_a_at) / RFU C10orf10 (11716521_a_at) / Fold change /veh C10orf10 (11716521_a_at) / RFU C5orf56 (11738089_at) / Fold change /veh C5orf56 (11738089_at) / RFU CYB561 (11721691_x_at) / Fold change /veh CYB561 (11721691_x_at) / RFU ANKRD19P (11752326_a_at) / Fold change /veh ANKRD19P (11752326_a_at) / RFU OR2T12 /// OR2T33 /// OR2T8 (11738714_s_at) / Fold change /veh OR2T12 /// OR2T33 /// OR2T8 (11738714_s_at) / RFU VCAN (11748164_a_at) / Fold change /veh VCAN (11748164_a_at) / RFU JSRP1 (11732532_at) / Fold change /veh JSRP1 (11732532_at) / RFU KRTAP10-11 (11738290_x_at) / Fold change /veh KRTAP10-11 (11738290_x_at) / RFU MYO3A (11730013_a_at) / Fold change /veh MYO3A (11730013_a_at) / RFU EBF3 (11725865_a_at) / Fold change /veh EBF3 (11725865_a_at) / RFU CAMK2N1 (11719241_x_at) / Fold change /veh CAMK2N1 (11719241_x_at) / RFU C5orf56 (11738088_a_at) / Fold change /veh C5orf56 (11738088_a_at) / RFU OLFML3 (11715873_a_at) / Fold change /veh OLFML3 (11715873_a_at) / RFU LOC100653217 /// NTM (11731650_a_at) / Fold change /veh LOC100653217 /// NTM (11731650_a_at) / RFU MAPK11 (11762145_a_at) / Fold change /veh MAPK11 (11762145_a_at) / RFU FIZ1 (11724087_x_at) / Fold change /veh FIZ1 (11724087_x_at) / RFU OASL (11726364_x_at) / Fold change /veh OASL (11726364_x_at) / RFU SOX15 (11748057_x_at) / Fold change /veh SOX15 (11748057_x_at) / RFU CD79A (11719716_a_at) / Fold change /veh CD79A (11719716_a_at) / RFU HIST1H1D (11736915_at) / Fold change /veh HIST1H1D (11736915_at) / RFU CASKIN2 (11723855_a_at) / Fold change /veh CASKIN2 (11723855_a_at) / RFU LOC730098 (11760151_x_at) / Fold change /veh LOC730098 (11760151_x_at) / RFU OR4N2 (11742367_at) / Fold change /veh OR4N2 (11742367_at) / RFU PRRT2 (11749266_a_at) / Fold change /veh PRRT2 (11749266_a_at) / RFU SNX32 (11753110_a_at) / Fold change /veh SNX32 (11753110_a_at) / RFU CDHR5 (11726645_a_at) / Fold change /veh CDHR5 (11726645_a_at) / RFU RCAN1 (11760418_a_at) / Fold change /veh RCAN1 (11760418_a_at) / RFU FAM167A (11723789_a_at) / Fold change /veh FAM167A (11723789_a_at) / RFU FAM26E (11764081_at) / Fold change /veh FAM26E (11764081_at) / RFU ISYNA1 (11749810_s_at) / Fold change /veh ISYNA1 (11749810_s_at) / RFU ACY1 (11761880_at) / Fold change /veh ACY1 (11761880_at) / RFU 11764098_at / Fold change /veh 11764098_at / RFU SAMD14 (11745864_x_at) / Fold change /veh SAMD14 (11745864_x_at) / RFU NPB (11741838_a_at) / Fold change /veh NPB (11741838_a_at) / RFU TMPRSS6 (11731388_a_at) / Fold change /veh TMPRSS6 (11731388_a_at) / RFU KRTAP10-2 (11738614_at) / Fold change /veh KRTAP10-2 (11738614_at) / RFU ARHGAP8 /// PRR5-ARHGAP8 (11727945_x_at) / Fold change /veh ARHGAP8 /// PRR5-ARHGAP8 (11727945_x_at) / RFU KRTAP5-7 /// NADSYN1 (11734609_at) / Fold change /veh KRTAP5-7 /// NADSYN1 (11734609_at) / RFU RASL12 (11751679_a_at) / Fold change /veh RASL12 (11751679_a_at) / RFU CDKN2B (11736163_a_at) / Fold change /veh CDKN2B (11736163_a_at) / RFU PRF1 (11729649_at) / Fold change /veh PRF1 (11729649_at) / RFU, ZNF638 /// ZNF638-IT1 / Fold change vs veh, ZNF638 /// ZNF638-IT1 / RFU, PANK3 / Fold change vs veh, PANK3 / RFU, SH3YL1 / Fold change vs veh, SH3YL1 / RFU, ZEB2 / Fold change vs veh, ZEB2 / RFU, NRIP1 / Fold change vs veh, NRIP1 / RFU, PTTG1IP / Fold change vs veh, PTTG1IP / RFU, CAPN2 / Fold change vs veh, CAPN2 / RFU, MED14 / Fold change vs veh, MED14 / RFU, SNORA58 / Fold change vs veh, SNORA58 / RFU, C1orf63 / Fold change vs veh, C1orf63 / RFU, LRRFIP1 / Fold change vs veh, LRRFIP1 / RFU, NDUFAF7 / Fold change vs veh, NDUFAF7 / RFU, SLC12A2 / Fold change vs veh, SLC12A2 / RFU, IBTK / Fold change vs veh, IBTK / RFU, ESF1 / Fold change vs veh, ESF1 / Fold change vs veh, TMEM50B / RFU, TAOK1 / Fold change vs veh, TAOK1 / RFU, ACBD3 / Fold change vs veh, ACBD3 / RFU, TMA16 / Fold change vs veh, TMA16 / RFU, RWDD3 / Fold change vs veh, RWDD3 / RFU, BCAT1 / Fold change vs veh, BCAT1 / RFU, EDEM3 / Fold change vs veh, EDEM3 / RFU, TMEM33 / Fold change vs veh, TMEM33 / RFU, WDR75 / Fold change vs veh, WDR75 / RFU, AHCTF1 / Fold change vs veh, AHCTF1 / RFU, TFRC / Fold change vs veh, TFRC / RFU, ZDHHC17 / Fold change vs veh, ZDHHC17 / RFU, NOM1 / Fold change vs veh, NOM1 / RFU, ARL8B / Fold change vs veh, ARL8B / RFU, ZBTB11 / Fold change vs veh, ZBTB11 / RFU, TAMM41 / Fold change vs veh, TAMM41 / RFU, KIAA1704 /// LOC100996395 / Fold change vs veh, KIAA1704 /// LOC100996395 / RFU, ING1 / Fold change vs veh, ING1 / RFU, TRMT61B / Fold change vs veh, TRMT61B / RFU, FUBP3 / Fold change vs veh, FUBP3 / RFU, TP53 / Fold change vs veh, TP53 / RFU, TNKS2 / Fold change vs veh, TNKS2 / RFU, ZFP14 / Fold change vs veh, ZFP14 / RFU, ACTR2 / Fold change vs veh, ACTR2 / RFU, PPP3R1 / Fold change vs veh, PPP3R1 / RFU, PIK3R1 / Fold change vs veh, PIK3R1 / RFU, HNRNPA1 / Fold change vs veh, HNRNPA1 / RFU, RNF170 / Fold change vs veh, RNF170 / RFU, ZNF28 / Fold change vs veh, ZNF28 / RFU, RNGTT / Fold change vs veh, RNGTT / RFU, OGT / Fold change vs veh, OGT / RFU, BRD1 / Fold change vs veh, BRD1 / RFU, MARS / Fold change vs veh, MARS / RFU, ZNF655 / Fold change vs veh, ZNF655 / RFU, FAHD1 / Fold change vs veh, FAHD1 / RFU, BDP1 / Fold change vs veh, BDP1 / RFU, LRRCC1 / Fold change vs veh, LRRCC1 / RFU, ARID1A / Fold change vs veh, ARID1A / RFU, ZNF146 / Fold change vs veh, ZNF146 / RFU, ZNF330 / Fold change vs veh, ZNF330 / RFU, GPN3 / Fold change vs veh, GPN3 / RFU, C9orf123 / Fold change vs veh, C9orf123 / RFU, N4BP2L2 / Fold change vs veh, N4BP2L2 / RFU, ARFIP1 / Fold change vs veh, ARFIP1 / RFU, FAM179B / Fold change vs veh, FAM179B / RFU, BCL10 / Fold change vs veh, BCL10 / RFU, UHRF1BP1L / Fold change vs veh, UHRF1BP1L / RFU, BET1 / Fold change vs veh, BET1 / RFU, CNOT2 / Fold change vs veh, CNOT2 / RFU, ZNF268 / Fold change vs veh, ZNF268 / Fold change vs veh, ZNF507 / RFU, DGCR2 / Fold change vs veh, DGCR2 / RFU, WDSUB1 / Fold change vs veh, WDSUB1 / Fold change vs veh, HSP90B1 /// MIR3652 / RFU, ADSS / Fold change vs veh, ADSS / RFU, GK / Fold change vs veh, GK / RFU, ZNF148 / Fold change vs veh, ZNF148 / RFU, TAF9 / Fold change vs veh, TAF9 / RFU, SLC1A5 / Fold change vs veh, SLC1A5 / RFU, SLMO2 / Fold change vs veh, SLMO2 / RFU, ABCC4 / Fold change vs veh, ABCC4 / RFU, LOC101060439 /// RAP1B / Fold change vs veh, LOC101060439 /// RAP1B / RFU, RFX7 / Fold change vs veh, RFX7 / RFU, GTPBP10 / Fold change vs veh, GTPBP10 / RFU, CNEP1R1 / Fold change vs veh, CNEP1R1 / RFU, BIVM-ERCC5 /// ERCC5 / Fold change vs veh, BIVM-ERCC5 /// ERCC5 / RFU, ILF3 / Fold change vs veh, ILF3 / RFU 11762660_at / Fold change /veh 11762660_at / RFU VCAN (11757783_s_at) / Fold change /veh VCAN (11757783_s_at) / RFU DDX43 (11728927_at) / Fold change /veh DDX43 (11728927_at) / RFU KRT8 (11758188_x_at) / Fold change /veh KRT8 (11758188_x_at) / RFU NKD1 (11759106_at) / Fold change /veh NKD1 (11759106_at) / RFU SRD5A1 (11742802_a_at) / Fold change /veh SRD5A1 (11742802_a_at) / RFU TPSAB1 /// TPSB2 (11721975_s_at) / Fold change /veh TPSAB1 /// TPSB2 (11721975_s_at) / RFU GSTM3 (11746129_a_at) / Fold change /veh GSTM3 (11746129_a_at) / RFU IL23R (11737362_x_at) / Fold change /veh IL23R (11737362_x_at) / RFU TMEM51 (11727254_a_at) / Fold change /veh TMEM51 (11727254_a_at) / RFU PIWIL2 (11732686_x_at) / Fold change /veh PIWIL2 (11732686_x_at) / RFU ORM1 (11744905_x_at) / Fold change /veh ORM1 (11744905_x_at) / RFU CCDC152 (11743942_at) / Fold change /veh CCDC152 (11743942_at) / RFU ECM1 (11717891_a_at) / Fold change /veh ECM1 (11717891_a_at) / RFU IL23R (11748794_a_at) / Fold change /veh IL23R (11748794_a_at) / RFU TNFAIP8L3 (11732012_x_at) / Fold change /veh TNFAIP8L3 (11732012_x_at) / RFU MBOAT4 (11741988_at) / Fold change /veh MBOAT4 (11741988_at) / RFU 11764193_at / Fold change /veh 11764193_at / RFU TMEM53 (11763286_at) / Fold change /veh TMEM53 (11763286_at) / RFU MAGEB2 (11727129_at) / Fold change /veh MAGEB2 (11727129_at) / RFU TMEM200A (11744735_a_at) / Fold change /veh TMEM200A (11744735_a_at) / RFU CCDC152 (11751479_a_at) / Fold change /veh CCDC152 (11751479_a_at) / RFU FAM211A (11726209_a_at) / Fold change /veh FAM211A (11726209_a_at) / RFU RGS16 (11746705_a_at) / Fold change /veh RGS16 (11746705_a_at) / RFU VCAN (11755009_s_at) / Fold change /veh VCAN (11755009_s_at) / RFU RHOB (11743442_s_at) / Fold change /veh RHOB (11743442_s_at) / RFU RGS16 (11720943_a_at) / Fold change /veh RGS16 (11720943_a_at) / RFU RGS16 (11720944_at) / Fold change /veh RGS16 (11720944_at) / RFU, VPS4B / Fold change vs veh, VPS4B / RFU, CREB1 / Fold change vs veh, CREB1 / RFU, DNAJC13 / Fold change vs veh, DNAJC13 / RFU, GNAQ / Fold change vs veh, GNAQ / RFU, CDK5R1 / Fold change vs veh, CDK5R1 / RFU, ZRANB3 / Fold change vs veh, ZRANB3 / RFU, CUL4A / Fold change vs veh, CUL4A / RFU, CCNY / Fold change vs veh, CCNY / RFU, UFL1 / Fold change vs veh, UFL1 / RFU, COG3 / Fold change vs veh, COG3 / RFU, DIAPH2 / Fold change vs veh, DIAPH2 / RFU, SKA2 / Fold change vs veh, SKA2 / RFU, AFF3 / Fold change vs veh, AFF3 / RFU, LMF1 / Fold change vs veh, LMF1 / RFU, IPO11 / Fold change vs veh, IPO11 / RFU, DFFB / Fold change vs veh, DFFB / RFU, FOXP1 / Fold change vs veh, FOXP1 / RFU, CARD8 / Fold change vs veh, CARD8 / RFU, STRN3 / Fold change vs veh, STRN3 / RFU, ADK / Fold change vs veh, ADK / RFU, RASSF2 / Fold change vs veh, RASSF2 / RFU, WIPF1 / Fold change vs veh, WIPF1 / RFU, LARP1B / Fold change vs veh, LARP1B / RFU, RASA1 / Fold change vs veh, RASA1 / RFU, RB1 / Fold change vs veh, RB1 / RFU, PPFIA1 / Fold change vs veh, PPFIA1 / RFU, MAT2A / Fold change vs veh, MAT2A / RFU, CCT5 / Fold change vs veh, CCT5 / RFU, WDR92 / Fold change vs veh, WDR92 / RFU, CUX1 / Fold change vs veh, CUX1 / RFU, TTC7A / Fold change vs veh, TTC7A / RFU, TMEM135 / Fold change vs veh, TMEM135 / RFU, DEPTOR / Fold change vs veh, DEPTOR / RFU, CPM / Fold change vs veh, CPM / RFU, DNAJB6 / Fold change vs veh, DNAJB6 / RFU, CACNA2D3 / Fold change vs veh, CACNA2D3 / RFU, DTX4 / Fold change vs veh, DTX4 / RFU, TFCP2 / Fold change vs veh, TFCP2 / RFU, GMCL1 /// GMCL1P1 / Fold change vs veh, GMCL1 /// GMCL1P1 / RFU, AEBP2 / Fold change vs veh, AEBP2 / RFU, SNHG1 /// SNORD22 /// SNORD25 /// SNORD26 /// SNORD27 /// SNORD28 /// SNORD29 /// SNORD31 / Fold change vs veh, SNHG1 /// SNORD22 /// SNORD25 /// SNORD26 /// SNORD27 /// SNORD28 /// SNORD29 /// SNORD31 / Fold change (Aza/veh), C12orf56 (ProbeSet 11735607_a_at) / Fold change (ACY-1035/veh), C12orf56 (ProbeSet 11735607_a_at) / Fold change (Aza/veh), FGFR1OP (ProbeSet 11751329_s_at) / Fold change (ACY-1035/veh), FGFR1OP (ProbeSet 11751329_s_at) / Fold change (Aza/veh), VPS36 (ProbeSet 11739960_a_at) / Fold change (ACY-1035/veh), VPS36 (ProbeSet 11739960_a_at) / RFU SYPL1 (11715823_x_at) / Fold change /veh SYPL1 (11715823_x_at) / RFU IGFBP7 (11715501_s_at) / Fold change /veh IGFBP7 (11715501_s_at) / RFU REEP3 (11722064_at) / Fold change /veh REEP3 (11722064_at) / RFU IGLL1 (11728026_x_at) / Fold change /veh IGLL1 (11728026_x_at): dose or concentration left out as unconfirmed. As to conditions: MV-4-11 cells, 48 hours.

The results in this text go back to PMC5218480 (PLoS ONE, 2017).

Consider `Nc1ncn([C@@H]2O[C@H](CO)[C@@H](O)[C@H]2O)c(=O)n1` [azacitidine], for which the “RFU CASKIN2 (11723855_a_at)” value is 31.47 RFU.
